These compounds were tested against SIRT6 enzyme (Homo sapiens, UniProt Q8N6T7) (assay: Measurement of deacetylation activity (SIRT6, AlphaLISA, H3K9(Ac) peptide)). Conditions: SIRT6 25 ng/mL, H3K9(Ac) biotin peptide 2 nM, NAD 10 μM, room temperature 30 minutes, duplicate.
Type: biochemical
How it was run: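 SIRT6 (25 ng/mL final) in Tris-HCl pH 8.0 buffer with compound (e.g. 0.046–100 μM final) reacted with biotin-H3K9(Ac) peptide (2 nM) and NAD+ (10 μM), 30 min, room temperature. Stopped with nicotinamide plus AlphaLISA anti-unmodified H3K9/K27 beads, 60 min; EC150 (150% relative activity) from sigmoidal fit.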

Sequence of SIRT6 enzyme (Q8N6T7 whole entry, species assumed): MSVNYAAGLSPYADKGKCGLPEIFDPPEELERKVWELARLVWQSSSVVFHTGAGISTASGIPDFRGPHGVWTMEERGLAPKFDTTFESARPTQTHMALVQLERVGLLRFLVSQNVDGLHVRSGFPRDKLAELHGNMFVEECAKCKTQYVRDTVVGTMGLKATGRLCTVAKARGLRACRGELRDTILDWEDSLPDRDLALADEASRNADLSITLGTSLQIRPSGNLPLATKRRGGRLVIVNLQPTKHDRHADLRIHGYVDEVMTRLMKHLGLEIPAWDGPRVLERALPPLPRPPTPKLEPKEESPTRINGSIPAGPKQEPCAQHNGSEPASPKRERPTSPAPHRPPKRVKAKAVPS

Point of comparison: `CNC(=O)Nc1nc2c(s1)C1CN(C(=O)OC)CC(C2)N1c1nc(-c2ccc(F)cn2)no1` (stereo not drawn) [Example 142, Methyl 10-[3-(5-fluoropyridin-2-yl)-1,2,4-oxadiazol-5-yl]-2-[(methylcarbamoyl)amino]-4,7,8,9-tetrahydro-4,8-epimino[1,3]thiazolo[5,4-d]azocine-6(5H)-carboxylate], “EC150 (the concentration of the compound showing a relative enzyme activity of 150%)” value 3.3 μm. Against it:
- CNC(=O)Nc1nc2c(s1)C1CN(C(=O)OC)CC(C2)N1c1nc2cc(OC)ccc2o1 (stereo not drawn) [Example 141, Methyl 10-(5-methoxy-1,3-benzoxazol-2-yl)-2-[(methylcarbamoyl)amino]-4,7,8,9-tetrahydro-4,8-epimino[1,3]thiazolo[5,4-d]azocine-6(5H)-carboxylate] — lower, 0.58 μm
- CC(C)OC(=O)N1CC2Cc3nc(NC(=O)NC4CCOCC4)sc3C(C1)N2c1nc(-c2ccc(F)cc2)no1 (stereo not drawn) [Example 143, Propan-2-yl-10-[3-(4-fluorophenyl)-1,2,4-oxadiazol-5-yl]-2-{[(oxan-4-yl)carbamoyl]amino}-4,7,8,9-tetrahydro-4,8-epimino[1,3]thiazolo[5,4-d]azocine-6(5H)-carboxylate] — lower, 0.62 μm
- CC(C)(O)CNC(=O)Nc1nc2c(s1)[C@@H]1COC[C@H](C2)N1c1nc2cc(C(F)(F)F)ccc2o1 [Example 144, N-(2-hydroxy-2-methylpropyl)-N′-{(4S,8S)-10-[5-(trifluoromethyl)-1,3-benzoxazol-2-yl]-4,7,8,9-tetrahydro-5H-4,8-epiminooxocino[5,4-d][1,3]thiazol-2-yl}urea] — lower, 0.61 μm
- Cc1ccc2oc(N3[C@@H]4COC[C@H]3c3sc(NC(=O)NCC(C)(C)O)nc3C4)nc2c1 [Example 145, N-(2-hydroxy-2-methylpropyl)-N′-[(4S,8S)-10-(5-methyl-1,3-benzoxazol-2-yl)-4,7,8,9-tetrahydro-5H-4,8-epiminooxocino[5,4-d][1,3]thiazol-2-yl]urea] — lower, 2.2 μm
- CC(C)(O)CNC(=O)Nc1nc2c(s1)[C@@H]1COC[C@H](C2)N1c1nc2cc(F)c(F)cc2o1 [Example 146, N-[(4S,8S)-10-(5,6-difluoro-1,3-benzoxazol-2-yl)-4,7,8,9-tetrahydro-5H-4,8-epiminooxocino[5,4-d][1,3]thiazol-2-yl]-N′-(2-hydroxy-2-methylpropyl)urea] — lower, 1.9 μm
- C[C@H](CO)NC(=O)Nc1nc2c(s1)[C@@H]1COC[C@H](C2)N1c1nc2cc(F)cc(F)c2o1 [Example 147, N-[(4S,8S)-10-(5,7-difluoro-1,3-benzoxazol-2-yl)-4,7,8,9-tetrahydro-5H-4,8-epiminooxocino[5,4-d][1,3]thiazol-2-yl]-N′-[(2R)-1-hydroxypropan-2-yl]urea] — the same, 3.3 μm
- Cc1cc2nc(N3[C@@H]4COC[C@H]3c3sc(NC(=O)N[C@H](C)CO)nc3C4)oc2cc1C [Example 148, N-[(4S,8S)-10-(5,6-dimethyl-1,3-benzoxazol-2-yl)-4,7,8,9-tetrahydro-5H-4,8-epiminooxocino[5,4-d][1,3]thiazol-2-yl]-N′-[(2R)-1-hydroxypropan-2-yl]urea] — lower, 0.95 μm
- O=C(Nc1nc2c(s1)[C@@H]1COC[C@H](C2)N1c1nc2cc(Cl)ccc2o1)N[C@H]1CC[C@H](O)CC1 [Example 149, N-[(4S,8S)-10-(5-chloro-1,3-benzoxazol-2-yl)-4,7,8,9-tetrahydro-5H-4,8-epiminooxocino[5,4-d] [1,3]thiazol-2-yl]-N′-[(1r,4r)-4-hydroxycyclohexyl]urea] — lower, 0.45 μm
- O=C(NCC1(O)CCOCC1)Nc1nc2c(s1)[C@@H]1COC[C@H](C2)N1c1nc2cc(Cl)ccc2o1 [Example 150, N-[(4S,8S)-10-(5-chloro-1,3-benzoxazol-2-yl)-4,7,8,9-tetrahydro-5H-4,8-epiminooxocino[5,4-d][1,3]thiazol-2-yl]-N′-[(4-hydroxyoxan-4-yl)methyl]urea] — lower, 0.43 μm
- COc1ccc2oc(N3[C@@H]4COC[C@H]3c3sc(NC(=O)N[C@H]5CCOC5)nc3C4)nc2c1 [Example 151, N-[(4S,8S)-10-(5-methoxy-1,3-benzoxazol-2-yl)-4,7,8,9-tetrahydro-5H-4,8-epiminooxocino[5,4-d][1,3]thiazol-2-yl]-N′-[(3S)-oxolan-3-yl]urea] — lower, 0.78 μm
- C[C@H](CO)NC(=O)Nc1nc2c(s1)C1CCC(C2)N1c1nc2cc(S(C)(=O)=O)ccc2o1 (stereo partly drawn) [Example 152, N-[(2R)-1-hydroxypropan-2-yl]-N′-{9-[5-(methanesulfonyl)-1,3-benzoxazol-2-yl]-5,6,7,8-tetrahydro-4H-5,8-epiminocyclohepta[d][1,3]thiazol-2-yl}urea] — lower, 2.7 μm
- C[C@@H](O)CNC(=O)Nc1nc2c(s1)CN(c1cc(C3CCC(F)(F)CC3)on1)CC2 [Example 153, N-{5-[5-(4,4-difluorocyclohexyl)-1,2-oxazol-3-yl]-4,5,6,7-tetrahydro[1,3]thiazolo[5,4-c]pyridin-2-yl}-N′-[(2R)-2-hydroxypropyl]urea] — lower, 2.1 μm
- C[C@H](CO)NC(=O)Nc1nc2c(s1)[C@@H]1COC[C@H](C2)N1c1cc(-c2ccc(F)cc2)on1 [Example 154, N-{(4S,8S)-10-[5-(4-fluorophenyl)-1,2-oxazol-3-yl]-4,7,8,9-tetrahydro-5H-4,8-epiminooxocino[5,4-d][1,3]thiazol-2-yl}-N′-[(2R)-1-hydroxypropan-2-yl]urea] — lower, 0.82 μm
- O=C(Nc1nc2c(s1)[C@@H]1COC[C@H](C2)N1c1cc(-c2ccc(F)cc2)on1)N[C@@H]1CCOC1 [Example 155] — lower, 0.51 μm
- C[C@H](CO)NC(=O)Nc1nc2c(s1)[C@@H]1COC[C@H](C2)N1c1cc(-c2cccc(C(F)F)c2)on1 [Example 156, N-[(4S,8S)-10-{5-[3-(difluoromethyl)phenyl]-1,2-oxazol-3-yl}-4,7,8,9-tetrahydro-5H-4,8-epiminooxocino[5,4-d][1,3]thiazol-2-yl]-N′-[(2R)-1-hydroxypropan-2-yl]urea] — lower, 1 μm
- O=C(Nc1nc2c(s1)[C@@H]1COC[C@H](C2)N1c1cc(C2CCC(F)(F)CC2)on1)N[C@@H]1CCOC1 [Example 157, N-{(4S,8S)-10-[5-(4,4-difluorocyclohexyl)-1,2-oxazol-3-yl]-4,7,8,9-tetrahydro-5H-4,8-epiminooxocino[5,4-d][1,3]thiazol-2-yl}-N′-[(3R)-oxolan-3-yl]urea] — higher, 4.6 μm
- O=C(Nc1nc2c(s1)[C@@H]1COC[C@H](C2)N1c1cc(-c2ccc(F)cc2)on1)N[C@H]1C[C@@H](O)C1 [Example 158, N-{(4S,8S)-10-[5-(4-fluorophenyl)-1,2-oxazol-3-yl]-4,7,8,9-tetrahydro-5H-4,8-epiminooxocino[5,4-d][1,3]thiazol-2-yl}-N′-[(1s,3R)-3-hydroxycyclobutyl]urea] — lower, 1.1 μm

Source: patent US11981686B2, “Urea compound having substituent” (DAIICHI SANKYO COMPANY, LIMITED, priority 2019, dated 2024)
